For 15 compounds, IC50 results are on record in patent publication US12590118B2, “Salt and crystal form of steroid derivative regulator” (Shanghai Hansoh Biomedical Co., Ltd., priority 2019, dated 2026).

What is called IC50 is the midpoint of a concentration-inhibition curve.

The assay concerns the target GABA-A receptor. As to the kind of experiment: 35S-TBPS binding assay (GABAA receptor binding ability assay). On the set-up: species or system Sprague-Dawley rat. Particulars: rat cerebral cortex cell membrane, 5 μM GABA, 2 nM 35S-TBPS; read-out: IC50 on inhibiting the TBPS binding activity, 35S-TBPS bindng assay. As to the method: 1. The cerebral cortex of male Sprague-Dawley rat was isolated.
2. A pre-chilled 0.32 M sucrose solution (one tablet of protease inhibitor was added per 100 mL) was added to the cerebral cortex (the volume of sucrose solution was 10 times the volume of the cerebral cortex). The mixture was crushed with a 50 mL glass tissue homogenizer in batches and mixed well.
3. The mixture was centrifuged at 1,500 g, 4° C. for 10 minutes, and the supernatant was collected.
4. The mixture was centrifuged at 20,000 g, 4° C. for 30 minutes, and the supernatant was discarded.
5. The precipitate was resuspended with the pre-chilled phosphate buffer saline (PBS) (one tablet of protease inhibitor was added per 100 mL). An average of 4 mL of PBS was added per rat, and the mixture was mixed well with a glass tissue homogenizer.
6. The mixture was centrifuged at 10,000 g, 4° C. for 10 minutes, and the supernatant was discarded.
7. Steps 5 and 6 were repeated three times.
8. Finally, the precipitate was resuspended with 4 volumes of PBS. The resulting solution was dispensed, frozen in liquid nitrogen, and stored at −80° C.
9. The protein concentration was measured by the bicinchoninic acid (BCA) method.
1. 230 μL of PBS was added to each well of a well plate with 1.1 mL volume.
2. 60 μL of the cerebral cortex cell membrane (5 μg/μL) solution was added to each well, and the mixture was mixed well.
3. The test compound (3 μL per well) was added, and the plate was incubated at 25° C. for 5 minutes. The DMSO concentration was 1%. The initial compound concentration was […], and a
3-fold dilution in gradient was carried out to obtain a total of 8 gradients and 2 replicates. 1% DMSO was used as a negative control, and 10 μM P026-2 was used as a positive control.
4. GABA was added at a final concentration of 5 μM, and incubated at 25° C. for 5 minutes. 1 mM GABA solution was formulated, and 1.5 μL of the solution was added to each well.
5. 35S-TBPS was added at a final concentration of 2 nM. The concentration of isotope mother solution was 9.7 μM. After dilution with PBS for 100 times, 6 μL of the diluted isotope solution was added to each well.
6. The plate was incubated at 4° C. for 20 hours.
7. The FilterMate GF/C plate was pre-treated with 0.5% PEI, and incubated at 4° C. for 1 hour.
8. The FilterMate GF/C plate was washed with Universal Harvester twice, 50 mL PBS each time.
9. The reaction solution was transferred to the GF/C plate, and each well was washed 4 times with 900 μL of PBS.
10. The washed GF/C plate was placed at 55° C. and dried for 10 minutes.
11. 40 μL of scintillation solution was added to each well, and the CPM value was read with TopCount.
In the experiment, the CPM (counts per minute) value was read with TopCount. According to the readings of the High control (DMSO) and the Low control (10 μM of the positive compound) experimental groups, the % inhibition was calculated based on the following formula: % Inhibition=100×(CPMHigh control−CPMsample)/(CPMHigh control−CPMLow control)
The IC50 of the compound was calculated according to the following 4-parameter nonlinear logic formula: Y=Bottom+(Top−Bottom)/(1+10^((Log IC50−X)*HillSlope)),
wherein: • X represents the log of compound concentration, • Y represents the % Inhibition.
The effect of the compound of the present invention on the TBPS binding activity was determined by the above test, and the measured IC50 values are shown in Table 5.

Regarding `C[C@@]1(O)CC[C@H]2[C@H](CC[C@@H]3[C@@H]2CC[C@@]2(C)[C@H]3[C@H](C3CC3)C[C@@H]2C(=O)Cn2cc(C#N)c(Cl)n2)C1` [Example 99, 3-Chloro-1-(2-((3R,5R,8R,9R,10S,13S,14S,15S,17S)-15-cyclopropyl-3-hydroxy-3,13-dimethylhexadecahydro-1H-cyclopenta[a]phenanthren-17-yl)-2-oxoethyl)-1H-pyrazole-4-carbonitrile], the IC50 turned out to be 24.4 nM.

On to `C[C@@]1(O)CC[C@H]2[C@H](CC[C@@H]3[C@@H]2CC[C@@]2(C)[C@H]3[C@@H]3C[C@@H]3[C@@H]2C(=O)Cn2cc(-c3ncco3)cn2)C1` [Example 85, 1-((2R,4aS,4bR,6aS,7S,7aS,8aR,8bR,8cR,10aR)-2-Hydroxy-2,6a-dimethyloctadecahydrocyclopropa[4,5]cyclopenta[1,2-a]phenanthren-7-yl)-2-(4-(oxazol-2-yl)-1H-pyrazol-1-yl)ethan-1-one], for which the IC50 was found to be 15.8 nM.

Take `C[C@@H]1C[C@H](C(=O)Cn2cc(C#N)c(C3CC3)n2)[C@@]2(C)CC[C@H]3[C@@H](CC[C@@H]4C[C@](C)(O)CC[C@@H]43)[C@H]12` [Example 47, 3-Cyclopropyl-1-(2-((3R,5R,8R,9R,10S,13S,14S,15R,17S)-3-hydroxy-3,13,15-trimethylhexadecahydro-1H-cyclopenta[a]phenanthren-17-yl)-2-oxoethyl)-1H-pyrazole-4-carbonitrile]: the IC50 was determined as 7.6 nM.

Regarding `C[C@@]1(O)CC[C@H]2[C@H](CC[C@@H]3[C@@H]2CC[C@@]2(C)[C@H]3[C@@H]3C[C@@H]3[C@@H]2C(=O)Cn2nccn2)C1` [Example 5, 1-((2R,4aS,4bR,6aS,7S,7aS,8aR,8bR,8cR,10aR)-2-Hydroxy-2,6a-dimethyloctadecahydrocyclopropa[4,5]cyclopenta[1,2-a]phenanthren-7-yl)-2-(2H-1,2,3-triazol-2-yl)ethan-1-one], the IC50 is 14.7 nM.

On to `C[C@@]1(O)CC[C@H]2[C@H](CC[C@@H]3[C@@H]2CC[C@@]2(C)[C@H]3[C@@H]3C[C@@H]3[C@@H]2C(=O)Cn2cc([N+](=O)[O-])cn2)C1` [Example 73, 1-((2R,4aS,4bR,6aS,7S,7aS,8aR,8bR,8cR,10aR)-2-Hydroxy-2,6a-dimethyloctadecahydrocyclopropa[4,5]cyclopenta[1,2-a]phenanthren-7-yl)-2-(4-nitro-1H-pyrazol-1-yl)ethan-1-one], for which the IC50 is 10.2 nM.

`Cc1c(C#N)cnn1CC(=O)[C@H]1[C@H]2C[C@H]2[C@H]2[C@@H]3CC[C@@H]4C[C@](C)(O)CC[C@@H]4[C@H]3CC[C@@]21C` [Example 29, 1-(2-((2R,4aS,4bR,6aS,7S,7aS,8aR,8bR,8cR,10aR)-2-Hydroxy-2,6a-dimethyloctadecahydrocyclopropa[4,5]cyclopenta[1,2-a]phenanthren-7-yl)-2-oxoethyl)-5-methyl-1H-pyrazole-4-carbonitrile]: the concentration for half-maximal inhibition (IC50) was found to be 15.4 nM.

For the compound `CC[C@@H]1C[C@H](C(=O)Cn2ccc(C(F)(F)F)n2)[C@@]2(C)CC[C@H]3[C@@H](CC[C@@H]4C[C@](C)(O)CC[C@@H]43)[C@H]12` [Example 91, 1-((3R,5R,8R,9R,10S,13S,14S,15R,17S)-15-Ethyl-3-hydroxy-3,13-dimethylhexadecahydro-1H-cyclopenta[a]phenanthren-17-yl)-2-(3-(trifluoromethyl)-1H-pyrazol-1-yl)ethan-1-one], the IC50 is 25.2 nM.

Take `CC[C@@H]1C[C@H](C(=O)Cn2nc(C#N)cc2C#N)[C@@]2(C)CC[C@H]3[C@@H](CC[C@@H]4C[C@](C)(O)CC[C@@H]43)[C@H]12` [Example 95, 1-(2-((3R,5R,8R,9R,10S,13S,14S,15R,17S)-15-Ethyl-3-hydroxy-3,13-dimethylhexadecahydro-1H-cyclopenta[a]phenanthren-17-yl)-2-oxoethyl)-1H-pyrazole-3,5-dicarbonitrile]: the IC50 was found to be 16.2 nM.

Consider `C[C@@H]1C[C@H](C(=O)Cn2cc(C(F)(F)F)cn2)[C@@]2(C)CC[C@H]3[C@@H](CC[C@@H]4C[C@](C)(O)CC[C@@H]43)[C@H]12` [Example 39, 1-((3R,5R,8R,9R,10S,13S,14S,15R,17S)-3-Hydroxy-3,13,15-trimethylhexadecahydro-1H-cyclopenta[a]phenanthren-17-yl)-2-(4-(trifluoromethyl)-11H-pyrazol-1-yl)ethan-1-one], for which the IC50 is 6.2 nM.

For `Cc1nnn(CC(=O)[C@H]2C[C@@H](C)[C@H]3[C@@H]4CC[C@@H]5C[C@](C)(O)CC[C@@H]5[C@H]4CC[C@@]32C)n1` [Example 43, 1-((3R,5R,8R,9R,10S,13S,14S,15R,17S)-3-Hydroxy-3,13,15-trimethylhexadecahydro-1H-cyclopenta[a]phenanthren-17-yl)-2-(5-methyl-2H-tetrazol-2-yl)ethan-1-one], the IC50 was found to be 5.4 nM.

With `C[C@@]1(O)CC[C@H]2[C@H](CC[C@@H]3[C@@H]2CC[C@@]2(C)[C@H]3[C@@H]3C[C@@H]3[C@@H]2C(=O)Cn2nc(C#N)cc2C#N)C1` [Example 84, 1-(2-((2R,4aS,4bR,6aS,7S,7aS,8aR,8bR,8cR,10aR)-2-Hydroxy-2,6a-dimethyloctadecahydrocyclopropa[4,5]cyclopenta[1,2-a]phenanthren-7-yl)-2-oxoethyl)-1H-pyrazole-3,5-dicarbonitrile], the IC50 worked out at 6.1 nM.

Consider `C[C@@H]1C[C@H](C(=O)Cn2cc(Cl)cn2)[C@@]2(C)CC[C@H]3[C@@H](CC[C@@H]4C[C@](C)(O)CC[C@@H]43)[C@H]12` [Example 68, 2-(4-Chloro-1H-pyrazol-1-yl)-1-((3R,5R,8R,9R,10S,13S,14S,15R,17S)-3-hydroxy-3,13,15-trimethylhexadecahydro-1H-cyclopenta[a]phenanthren-17-yl)ethan-1-one], for which the IC50 is 9.6 nM.

In the case of `C[C@@]1(O)CC[C@H]2[C@H](CC[C@@H]3[C@@H]2CC[C@@]2(C)[C@H]3[C@@H]3C[C@@H]3[C@@H]2C(=O)Cn2cc(C#N)c(C3CC3)n2)C1` [Example 24, 3-Cyclopropyl-1-(2-((2R,4aS,4bR,6aS,7S,7aS,8aR,8bR,8cR,10aR)-2-hydroxy-2,6a-dimethyloctadecahydrocyclopropa[4,5]cyclopenta[1,2-a]phenanthren-7-yl)-2-oxoethyl)-1H-pyrazole-4-carbonitrile], the IC50 turned out to be 18.3 nM.

Regarding `Cc1nn(CC(=O)[C@H]2[C@H]3C[C@H]3[C@H]3[C@@H]4CC[C@@H]5C[C@](C)(O)CC[C@@H]5[C@H]4CC[C@@]32C)cc1C#N` [Example 28, 1-(2-((2R,4aS,4bR,6aS,7S,7aS,8aR,8bR,8cR,10aR)-2-Hydroxy-2,6a-dimethyloctadecahydrocyclopropa[4,5]cyclopenta[1,2-a]phenanthren-7-yl)-2-oxoethyl)-3-methyl-1H-pyrazole-4-carbonitrile], the IC50 stood at 15.4 nM.

For `C[C@@]1(O)CC[C@H]2[C@H](CC[C@@H]3[C@@H]2CC[C@@]2(C)[C@H]3[C@@H]3C[C@@H]3[C@@H]2C(=O)Cn2ncnn2)C1` [Example 7, 1-((2R,4aS,4bR,6aS,7S,7aS,8aR,8bR,8cR,10aR)-2-Hydroxy-2,6a-dimethyloctadecahydrocyclopropa[4,5]cyclopenta[1,2-a]phenanthren-7-yl)-2-(2H-tetrazol-2-yl)ethan-1-one], the IC50 was 21.3 nM.
